Measured values from ChEMBL document CHEMBL1201862, “PubChem BioAssay data set” (2004).
The source made the active and inactive calls.

Key:
Caspase-6 = target: T1, Caspase-6 (Homo sapiens, UniProt P55212); experiment: inhibition of CASP6 peptide cleavage – biochemical, VEID-R110 fluorescence, cherry-pick, dose response (AID 720632)
T1 sequence (P55212 whole entry): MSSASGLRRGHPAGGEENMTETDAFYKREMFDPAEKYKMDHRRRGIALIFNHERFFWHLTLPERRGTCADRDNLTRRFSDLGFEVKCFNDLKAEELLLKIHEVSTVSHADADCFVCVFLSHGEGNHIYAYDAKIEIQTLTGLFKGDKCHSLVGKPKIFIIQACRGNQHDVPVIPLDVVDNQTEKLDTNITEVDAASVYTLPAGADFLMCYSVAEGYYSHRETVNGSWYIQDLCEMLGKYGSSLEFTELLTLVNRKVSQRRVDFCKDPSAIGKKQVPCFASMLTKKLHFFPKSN

[1] = target: Voltage-dependent T-type calcium channel subunit alpha-1H (Homo sapiens, UniProt O95180); type: functional;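 also: channel activity triggered by adding a high calcium stimulation buffer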
Large T antigen = Large T antigen (Simian virus 40, UniProt P03070); type: functional, Betapolyomavirus macacae;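 also: Confirmatory-stage PubChem screen for compounds that inhibit SV40 T antigen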
[2] = viability loss in HeLa cells – cytotoxicity control for MgcRacGAP inhibitor project, dose response (AID 624300); type: functional
[3] = target: T2, Rac GTPase-activating protein 1 (Homo sapiens, UniProt Q9H0H5); experiment: blockers of MgcRacGAP-driven Rac1 GTP hydrolysis – biochemical, ADP Hunter fluorescence, primary and confirmatory, confirmation (AID 624330); type: functional
T2 sequence (Q9H0H5 whole entry): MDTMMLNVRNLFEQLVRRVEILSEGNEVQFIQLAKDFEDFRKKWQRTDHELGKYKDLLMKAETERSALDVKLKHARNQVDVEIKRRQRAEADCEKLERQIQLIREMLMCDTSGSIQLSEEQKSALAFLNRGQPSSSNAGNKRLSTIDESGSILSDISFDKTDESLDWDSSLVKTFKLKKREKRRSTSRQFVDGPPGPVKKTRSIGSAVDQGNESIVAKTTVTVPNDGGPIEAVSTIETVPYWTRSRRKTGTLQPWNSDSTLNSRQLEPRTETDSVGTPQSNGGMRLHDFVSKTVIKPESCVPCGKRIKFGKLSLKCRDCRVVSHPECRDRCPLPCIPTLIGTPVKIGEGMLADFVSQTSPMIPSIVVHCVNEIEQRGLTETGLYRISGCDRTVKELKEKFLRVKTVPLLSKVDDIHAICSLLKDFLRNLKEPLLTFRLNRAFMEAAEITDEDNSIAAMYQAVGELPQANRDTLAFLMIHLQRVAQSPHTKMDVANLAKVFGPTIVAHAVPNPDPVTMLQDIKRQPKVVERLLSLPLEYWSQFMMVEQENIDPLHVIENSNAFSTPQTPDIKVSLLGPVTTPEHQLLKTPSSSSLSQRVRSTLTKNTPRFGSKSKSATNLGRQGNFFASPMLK

Caspase-3 = target: T3, Caspase-3 (Homo sapiens, UniProt P42574); type: functional;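 also: Dose-response selectivity test against caspase-3 for candidate inhibitors of sentrin-specific proteases (SENPs)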
T3 sequence (P42574 whole entry): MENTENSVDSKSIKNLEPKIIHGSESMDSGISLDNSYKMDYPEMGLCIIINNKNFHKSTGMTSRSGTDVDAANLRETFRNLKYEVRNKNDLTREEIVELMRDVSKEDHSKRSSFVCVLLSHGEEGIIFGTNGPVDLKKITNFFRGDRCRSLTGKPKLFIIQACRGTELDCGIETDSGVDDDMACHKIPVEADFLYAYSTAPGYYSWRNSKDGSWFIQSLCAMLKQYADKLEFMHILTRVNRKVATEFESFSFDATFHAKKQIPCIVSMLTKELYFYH

[4] = target: T4, Sentrin-specific protease 7 (Homo sapiens, UniProt Q9BQF6); type: functional;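 also: Luminescence-based dose-response confirmation of ultra-high-throughput screening hits, measuring inhibition of SENP7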
T4 sequence (Q9BQF6 whole entry): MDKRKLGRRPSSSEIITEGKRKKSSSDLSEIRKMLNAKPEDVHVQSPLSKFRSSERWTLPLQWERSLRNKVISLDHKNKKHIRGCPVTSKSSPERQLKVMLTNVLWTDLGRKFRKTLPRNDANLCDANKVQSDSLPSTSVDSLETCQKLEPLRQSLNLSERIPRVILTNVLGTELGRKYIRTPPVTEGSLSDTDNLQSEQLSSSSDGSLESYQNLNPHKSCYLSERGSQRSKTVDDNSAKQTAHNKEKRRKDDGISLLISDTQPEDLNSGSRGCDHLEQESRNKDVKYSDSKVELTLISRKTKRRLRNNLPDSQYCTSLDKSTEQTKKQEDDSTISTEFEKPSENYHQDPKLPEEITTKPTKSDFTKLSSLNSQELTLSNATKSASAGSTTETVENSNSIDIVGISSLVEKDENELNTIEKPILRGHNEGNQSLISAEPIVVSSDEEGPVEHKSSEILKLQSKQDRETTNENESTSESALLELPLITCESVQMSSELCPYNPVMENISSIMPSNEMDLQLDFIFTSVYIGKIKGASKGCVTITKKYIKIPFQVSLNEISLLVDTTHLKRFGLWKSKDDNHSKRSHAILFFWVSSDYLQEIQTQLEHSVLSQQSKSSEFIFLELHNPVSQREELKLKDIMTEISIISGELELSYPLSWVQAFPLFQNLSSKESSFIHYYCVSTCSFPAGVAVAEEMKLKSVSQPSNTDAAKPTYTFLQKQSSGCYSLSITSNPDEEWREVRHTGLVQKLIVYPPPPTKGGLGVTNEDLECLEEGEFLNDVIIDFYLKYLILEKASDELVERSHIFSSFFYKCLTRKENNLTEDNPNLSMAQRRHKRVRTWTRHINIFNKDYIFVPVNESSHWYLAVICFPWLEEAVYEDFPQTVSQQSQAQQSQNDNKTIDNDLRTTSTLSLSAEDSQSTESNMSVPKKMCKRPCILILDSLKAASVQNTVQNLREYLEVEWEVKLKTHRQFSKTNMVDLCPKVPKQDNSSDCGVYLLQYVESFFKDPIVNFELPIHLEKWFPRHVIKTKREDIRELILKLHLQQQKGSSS

[5] = target: T5, Sentrin-specific protease 6 (Homo sapiens, UniProt Q9GZR1); type: functional;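 also: Luminescence-based dose-response confirmatory assay of SENP6 inhibition, following up an ultra-high-throughput screen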
T5 sequence (Q9GZR1 whole entry): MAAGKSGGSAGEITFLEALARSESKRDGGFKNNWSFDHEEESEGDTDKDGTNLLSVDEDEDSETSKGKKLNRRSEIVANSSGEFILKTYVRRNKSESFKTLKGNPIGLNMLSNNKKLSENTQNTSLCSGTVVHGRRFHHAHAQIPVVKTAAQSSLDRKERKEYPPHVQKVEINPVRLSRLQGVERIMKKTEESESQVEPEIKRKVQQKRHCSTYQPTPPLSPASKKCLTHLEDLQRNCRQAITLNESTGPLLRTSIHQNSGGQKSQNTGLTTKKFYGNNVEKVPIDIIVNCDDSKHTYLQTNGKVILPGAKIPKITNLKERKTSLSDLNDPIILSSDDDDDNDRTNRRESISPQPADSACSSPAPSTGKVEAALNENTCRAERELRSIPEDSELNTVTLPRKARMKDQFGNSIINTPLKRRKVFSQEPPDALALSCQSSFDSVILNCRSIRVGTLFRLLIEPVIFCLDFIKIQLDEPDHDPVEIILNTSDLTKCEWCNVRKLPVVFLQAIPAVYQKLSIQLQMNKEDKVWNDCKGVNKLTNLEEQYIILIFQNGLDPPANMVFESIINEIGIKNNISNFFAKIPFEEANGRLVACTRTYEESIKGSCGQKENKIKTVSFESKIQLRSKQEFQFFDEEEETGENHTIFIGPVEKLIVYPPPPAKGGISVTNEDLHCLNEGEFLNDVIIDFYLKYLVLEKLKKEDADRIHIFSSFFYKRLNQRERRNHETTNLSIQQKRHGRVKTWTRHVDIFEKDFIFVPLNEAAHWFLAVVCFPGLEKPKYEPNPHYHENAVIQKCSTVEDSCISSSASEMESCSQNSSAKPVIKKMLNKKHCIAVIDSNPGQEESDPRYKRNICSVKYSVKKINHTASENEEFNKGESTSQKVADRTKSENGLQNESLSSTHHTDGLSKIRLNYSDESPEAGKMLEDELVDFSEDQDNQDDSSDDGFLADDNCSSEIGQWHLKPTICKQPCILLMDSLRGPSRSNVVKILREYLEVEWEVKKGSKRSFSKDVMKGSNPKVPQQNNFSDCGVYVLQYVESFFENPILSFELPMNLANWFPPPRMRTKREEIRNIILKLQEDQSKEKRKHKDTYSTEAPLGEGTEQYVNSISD

[6] = target: T6, Sentrin-specific protease 8 (Homo sapiens, UniProt Q96LD8); type: functional;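 also: luminescence read-out of SENP8 inhibition, dose-response confirmation following an ultra-high-throughput screen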
T6 sequence (Q96LD8 whole entry): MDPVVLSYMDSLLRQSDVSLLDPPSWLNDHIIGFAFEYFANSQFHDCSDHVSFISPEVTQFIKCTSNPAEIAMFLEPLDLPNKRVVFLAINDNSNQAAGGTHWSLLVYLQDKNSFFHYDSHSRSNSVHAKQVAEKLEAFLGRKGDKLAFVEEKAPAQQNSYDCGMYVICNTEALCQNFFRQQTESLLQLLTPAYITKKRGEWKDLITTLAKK

[7] = system: Streptococcus sp. 'group A'; experiment: Streptococcus pyogenes SK(-)GAS viability under kanamycin – luminescence, BacTiterGlo, confirmation, counter-screen for streptokinase expression inhibitor project, dose response (AID 1900); type: functional, organism-based
Streptokinase A = target: T7, Streptokinase A (Streptococcus pyogenes serotype M1, UniProt P10520); experiment: viability-normalized secreted streptokinase activity reduction – plasminogen activation absorbance, OD405, dose response (AID 1914); type: functional, Streptococcus pyogenes M1 GAS;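 also: secreted streptokinase activity via plasminogen activation per viability signal from cell pellet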
T7 sequence (P10520 whole entry): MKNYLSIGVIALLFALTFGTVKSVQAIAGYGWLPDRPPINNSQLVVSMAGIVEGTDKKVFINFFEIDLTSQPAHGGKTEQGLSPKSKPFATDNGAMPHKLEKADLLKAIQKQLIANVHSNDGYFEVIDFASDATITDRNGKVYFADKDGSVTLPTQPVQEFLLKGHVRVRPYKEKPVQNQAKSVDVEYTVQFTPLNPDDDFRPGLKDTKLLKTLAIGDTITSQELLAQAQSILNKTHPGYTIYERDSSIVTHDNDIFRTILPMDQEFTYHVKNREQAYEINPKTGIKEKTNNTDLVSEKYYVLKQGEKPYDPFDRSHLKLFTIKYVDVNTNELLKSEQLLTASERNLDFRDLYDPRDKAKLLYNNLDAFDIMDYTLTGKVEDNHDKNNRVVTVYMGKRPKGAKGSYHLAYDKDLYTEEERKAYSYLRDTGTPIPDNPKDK

Streptococcus = experiment: GAS UMAA2166 growth inhibition – luminescence, BacTiterGlo, counter-screen for streptokinase expression inhibitor project, dose response (AID 1915); type: functional, organism-based;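 also: potency for reduction of bacterial viability or growth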
[8] = target: FAD-linked sulfhydryl oxidase ALR (Homo sapiens, UniProt P55789); experiment: ALR-catalysed DTT oxidation blockers – biochemical, H2O2 detection, luminescence, cherry-pick, dose response (AID 493248)
Paired box protein Pax-8 = Paired box protein Pax-8 (Homo sapiens, UniProt Q06710); experiment: PAX8 transcriptional activity inhibition in RMG-I – RMG-I cells, luciferase, cherry-pick, dose response (AID 687027); type: functional, cell-based;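 also: luciferase reporter driven by Pax8 target thyroperoxidase promoter measured by SteadyGlo luminescence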
[9] = OVCAR-3 cell viability loss – plate reader, dry powder samples, PAX8 inhibitor project, dose response (AID 743044); type: functional, cell-based
[10] = IGROV1 cell killing – plate reader, dry powder samples, PAX8 inhibitor project, dose response (AID 743043); type: functional, cell-based; settings: IGROV-1
[11] = OVCAR8 cell viability loss – plate reader, dry powder samples, PAX8 project, dose response (AID 743197); type: functional, cell-based; settings: OVCAR-8
[12] = THP-1 cell cytotoxicity, dose response, cytotoxicity control for non-replicating M. tuberculosis project (AID 489025); type: functional
cells = type: functional
INS1 = experiment: INS-1E survival protection against cytokine death – cell-based, luminescence, retest, dose response (AID 449756); type: functional; settings: Rattus norvegicus;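 also: cell death triggered by IL-1 beta plus TNF-alpha plus IFN-gamma mixture; protective hits raise ATP signal compared with cytokine alone wells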

Sequence of Voltage-dependent T-type calcium channel subunit alpha-1H (O95180 whole entry): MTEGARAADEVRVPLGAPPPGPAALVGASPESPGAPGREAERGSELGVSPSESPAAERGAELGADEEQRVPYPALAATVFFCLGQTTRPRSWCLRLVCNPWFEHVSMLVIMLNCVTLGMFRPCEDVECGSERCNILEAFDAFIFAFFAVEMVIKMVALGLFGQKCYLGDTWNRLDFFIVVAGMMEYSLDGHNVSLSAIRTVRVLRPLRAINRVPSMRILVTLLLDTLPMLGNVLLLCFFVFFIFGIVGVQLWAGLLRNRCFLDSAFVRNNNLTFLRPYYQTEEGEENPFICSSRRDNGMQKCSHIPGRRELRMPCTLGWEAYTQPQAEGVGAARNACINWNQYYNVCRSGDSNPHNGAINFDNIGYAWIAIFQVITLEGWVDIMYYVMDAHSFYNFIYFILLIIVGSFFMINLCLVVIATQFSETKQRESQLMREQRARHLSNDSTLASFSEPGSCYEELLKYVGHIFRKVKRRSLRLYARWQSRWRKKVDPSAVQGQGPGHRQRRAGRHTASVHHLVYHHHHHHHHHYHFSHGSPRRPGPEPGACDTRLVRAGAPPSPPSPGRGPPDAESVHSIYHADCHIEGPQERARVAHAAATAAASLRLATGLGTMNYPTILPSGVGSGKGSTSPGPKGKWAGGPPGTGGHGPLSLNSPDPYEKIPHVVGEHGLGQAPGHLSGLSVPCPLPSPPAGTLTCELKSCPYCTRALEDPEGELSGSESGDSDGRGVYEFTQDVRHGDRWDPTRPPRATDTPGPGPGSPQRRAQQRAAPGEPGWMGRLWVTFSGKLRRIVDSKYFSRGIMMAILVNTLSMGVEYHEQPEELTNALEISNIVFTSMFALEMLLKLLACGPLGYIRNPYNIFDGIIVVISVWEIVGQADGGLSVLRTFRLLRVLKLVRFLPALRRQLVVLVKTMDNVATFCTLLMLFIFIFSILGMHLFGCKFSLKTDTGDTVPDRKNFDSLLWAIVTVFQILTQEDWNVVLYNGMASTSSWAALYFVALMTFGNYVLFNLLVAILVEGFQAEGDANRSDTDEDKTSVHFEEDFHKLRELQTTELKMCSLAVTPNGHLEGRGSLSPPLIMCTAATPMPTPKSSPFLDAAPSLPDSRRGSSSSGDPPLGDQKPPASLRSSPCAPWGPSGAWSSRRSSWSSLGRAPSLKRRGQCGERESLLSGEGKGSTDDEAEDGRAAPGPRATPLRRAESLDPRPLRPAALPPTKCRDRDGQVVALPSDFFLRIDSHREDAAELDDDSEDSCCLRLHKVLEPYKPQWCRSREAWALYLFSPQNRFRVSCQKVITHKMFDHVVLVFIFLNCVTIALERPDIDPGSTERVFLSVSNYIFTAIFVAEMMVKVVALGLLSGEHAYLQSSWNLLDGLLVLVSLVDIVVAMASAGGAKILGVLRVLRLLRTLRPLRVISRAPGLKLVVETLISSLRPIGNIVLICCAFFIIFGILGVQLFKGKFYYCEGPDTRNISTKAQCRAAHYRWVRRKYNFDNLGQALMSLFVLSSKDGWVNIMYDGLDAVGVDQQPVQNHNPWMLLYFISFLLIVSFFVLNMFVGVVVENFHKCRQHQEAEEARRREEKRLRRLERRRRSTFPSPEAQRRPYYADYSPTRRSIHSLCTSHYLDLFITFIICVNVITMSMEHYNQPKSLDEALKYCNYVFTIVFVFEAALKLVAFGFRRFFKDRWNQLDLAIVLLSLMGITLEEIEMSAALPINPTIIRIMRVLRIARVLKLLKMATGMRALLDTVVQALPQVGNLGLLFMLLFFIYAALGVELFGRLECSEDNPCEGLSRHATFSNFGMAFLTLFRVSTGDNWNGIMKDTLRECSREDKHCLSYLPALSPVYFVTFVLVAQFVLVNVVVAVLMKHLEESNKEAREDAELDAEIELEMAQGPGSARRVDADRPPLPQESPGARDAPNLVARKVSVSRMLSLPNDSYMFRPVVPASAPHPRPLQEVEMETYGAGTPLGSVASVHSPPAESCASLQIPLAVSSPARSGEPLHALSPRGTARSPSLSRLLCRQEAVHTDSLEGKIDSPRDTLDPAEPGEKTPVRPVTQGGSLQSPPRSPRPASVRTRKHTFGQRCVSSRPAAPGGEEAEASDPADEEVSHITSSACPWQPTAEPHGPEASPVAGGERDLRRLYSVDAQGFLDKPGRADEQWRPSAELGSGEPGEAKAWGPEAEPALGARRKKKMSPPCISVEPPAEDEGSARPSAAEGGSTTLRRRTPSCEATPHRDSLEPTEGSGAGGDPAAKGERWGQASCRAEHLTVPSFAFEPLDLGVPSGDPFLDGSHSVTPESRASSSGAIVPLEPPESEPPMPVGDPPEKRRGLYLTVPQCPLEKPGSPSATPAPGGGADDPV
Sequence of Large T antigen (P03070 whole entry): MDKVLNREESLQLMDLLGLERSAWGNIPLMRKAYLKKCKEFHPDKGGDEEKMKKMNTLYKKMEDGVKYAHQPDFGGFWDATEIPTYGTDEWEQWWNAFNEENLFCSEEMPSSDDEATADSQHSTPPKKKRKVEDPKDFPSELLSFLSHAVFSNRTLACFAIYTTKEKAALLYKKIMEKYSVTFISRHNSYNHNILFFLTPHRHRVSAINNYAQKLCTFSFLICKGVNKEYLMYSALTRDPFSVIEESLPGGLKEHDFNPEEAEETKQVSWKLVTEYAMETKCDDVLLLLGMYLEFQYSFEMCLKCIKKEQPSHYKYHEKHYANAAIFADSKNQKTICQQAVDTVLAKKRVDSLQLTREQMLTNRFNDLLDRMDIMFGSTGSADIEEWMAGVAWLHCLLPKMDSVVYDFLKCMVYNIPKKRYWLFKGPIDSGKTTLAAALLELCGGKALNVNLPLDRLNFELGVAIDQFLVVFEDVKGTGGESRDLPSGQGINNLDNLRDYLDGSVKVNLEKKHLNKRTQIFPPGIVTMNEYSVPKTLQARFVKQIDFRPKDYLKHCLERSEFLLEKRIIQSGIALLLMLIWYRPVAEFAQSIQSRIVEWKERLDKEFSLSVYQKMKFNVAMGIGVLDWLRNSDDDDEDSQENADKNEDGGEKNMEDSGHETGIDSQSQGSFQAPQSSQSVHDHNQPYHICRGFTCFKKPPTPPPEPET
Sequence of Paired box protein Pax-8 (Q06710 whole entry): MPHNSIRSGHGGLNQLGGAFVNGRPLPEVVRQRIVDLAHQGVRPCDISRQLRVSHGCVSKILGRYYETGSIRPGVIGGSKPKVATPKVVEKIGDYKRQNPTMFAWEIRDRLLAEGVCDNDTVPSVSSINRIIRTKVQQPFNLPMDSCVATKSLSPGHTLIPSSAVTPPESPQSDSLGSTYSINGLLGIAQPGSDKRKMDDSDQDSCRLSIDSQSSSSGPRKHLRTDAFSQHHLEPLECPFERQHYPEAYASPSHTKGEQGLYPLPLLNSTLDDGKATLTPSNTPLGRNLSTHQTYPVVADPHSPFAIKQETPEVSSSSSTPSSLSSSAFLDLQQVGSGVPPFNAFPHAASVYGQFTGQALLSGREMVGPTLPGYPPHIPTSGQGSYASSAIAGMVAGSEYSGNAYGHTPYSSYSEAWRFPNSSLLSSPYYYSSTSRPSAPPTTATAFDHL
Sequence of FAD-linked sulfhydryl oxidase ALR (P55789 whole entry): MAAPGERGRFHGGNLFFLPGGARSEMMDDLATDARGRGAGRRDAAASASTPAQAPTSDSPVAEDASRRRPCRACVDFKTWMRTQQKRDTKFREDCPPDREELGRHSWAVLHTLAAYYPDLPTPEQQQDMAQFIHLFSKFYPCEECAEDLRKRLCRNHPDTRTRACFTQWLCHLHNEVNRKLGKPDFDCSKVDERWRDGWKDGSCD

SMILES: Cn1cnnc1SCC(=O)Nc1ncc([N+](=O)[O-])s1
- AC50 (Caspase-6): 3.04 µM (active)

SMILES: Oc1ccc(C(c2nnnn2C2CCCC2)N2CCc3ccccc3C2)cc1 (stereo not drawn)
- EC50 [1]: 5.95 µM (active)

SMILES: Cc1nc(CS(=O)(=O)c2ccc(Cl)cc2)cc(Sc2ccc(Cl)cc2)n1
- EC50 [1]: 4.35 µM (active)

SMILES: Cc1ccc(C2=NOC(=O)/C2=C\c2ccc(C)o2)cc1
- IC50 (Large T antigen): 78.1 µM (active)
- CC50 [2]: 100 µM (active)
- IC50 [3]: 44.8 µM (active)

SMILES: CCO/C=C1/C(=O)N(c2ccc(OC)cc2)C(=O)c2ccccc21
- IC50 (Caspase-3): 7.36 µM (active)
- IC50 [4]: 25.8 µM (active)
- IC50 [5]: 8.55 µM (active)
- IC50 [6]: 11.6 µM (active)

SMILES: COc1cc(/C=N/NC(=O)c2cc(-c3c(C)nn(-c4ccccc4)c3C)[nH]n2)ccc1O
- EC50 [7]: 4.04 µM (active)
- EC50 (Streptokinase A): 43.9 µM (inconclusive)
- EC50 (Streptococcus): 4.37 µM (active)
- AC50 [8]: 0.105 µM (active)
- CC50 [2]: 90 µM (active)
- IC50 [3]: 39.1 µM (active)

SMILES: COc1cc(-c2cc(-c3ccc(O)cc3)nc(N)c2C#N)ccc1O
- CC50 [2]: 100 µM (active)
- IC50 [3]: 34.7 µM (active)

SMILES: O=C(CSCc1nc2ccccc2[nH]1)N1CCN(c2cccc(Cl)c2)CC1
- EC50 [1]: 3.55 µM (active)

SMILES: COc1ccc(S(=O)(=O)N(C)C[C@@H]2OCCCC[C@H](C)Oc3ccc(NS(=O)(=O)c4ccccc4)cc3C(=O)N([C@H](C)CO)C[C@H]2C)cc1
- AC50 (Paired box protein Pax-8): 5.15 µM (active)
- AC50 [9]: 28.2 µM (active)
- AC50 [10]: 43.2 µM (active)
- AC50 [11]: > 70 µM (inactive)

SMILES: O=C(NCCCN1CCOCC1)c1c(O)nc2c(Br)cc(Br)cc2c1O
- CC50 [12]: > 40 µM (active)
- IC50 (cells): 1.04 µM (active)

SMILES: c1ccc(Nc2ncnc3c2oc2ccccc23)cc1
- IC50 (Caspase-3): 31.3 µM (active)
- IC50 [4]: 11.9 µM (active)
- IC50 [5]: > 100 µM (inactive)
- IC50 [6]: > 100 µM (inactive)

SMILES: CC(C)(C)n1nnnc1C(c1ccc(F)cc1)N(Cc1ccc(F)cc1)Cc1ccco1 (stereo not drawn)
- EC50 [1]: 2.6 µM (active)
- AC50 (INS1): 8.41 µM (active)

SMILES: Nc1ncnc(Oc2cccc3cccnc23)c1[N+](=O)[O-]
- CC50 [12]: 39.5 µM (active)
- IC50 (cells): 10.8 µM (active)
